Each structure is given as a SMILES string.

What all share (type): cell-based, human
Test [1] relates to ADSCs. The experiment in a line: Osteogenic differentiation assay. Particulars: H2O2 group ADSCs (100 μM 2 h), compared to untreated group. On the procedure: Four portions of equal volume of the above culture medium containing the sub-cultured ADSCs were separately handled by adding thereinto H2O2 (purchased from Sigma-Aldrich) at a final concentration of 100 μM and reacting for 2 hours to induce senescence of the ADSCs, replacing the culture medium with a fresh culture medium, adding thereinto TC (trans-cinnamaldehyde, purchased from Sigma-Aldrich) at a final concentration of 0, 2, 4 or 6 μM and reacting for 6 hours, so as to obtain “H2O2 group (i.e., treated with H2O2 for 2 hours, but not treated with TC),” “H2O2+TC2 group (i.e., treated with H2O2 for 2 hours and then treated with 2 μM of TC for 6 hours),” “H2O2+TC4 group (i.e., treated with H2O2 for 2 hours and then treated with 4 μM of TC for 6 hours),” and “H2O2+TC6 group (i.e., treated with H2O2 for 2 hours and then treated with 6 μM of TC for 6 hours)” ADSCs. […] After being photographed, the absorbance at a wavelength of 450 nm (i.e., OD450) of each sample was measured to figure out the effect of H2O2 and/or TC on the osteogenic differentiation capacity of ADSCs.

The test system of test [2] is ADSCs. The experiment in a line: Semiquantitative RT-PCR of senescence, cell cycle and pluripotency genes in ADSCs. On the procedure: (§1) Four portions of equal volume of the above culture medium containing the sub-cultured ADSCs were separately handled by adding thereinto H2O2 (purchased from Sigma-Aldrich) at a final concentration of 100 μM and reacting for 2 hours to induce senescence of the ADSCs, replacing the culture medium with a fresh culture medium, adding thereinto TC (trans-cinnamaldehyde, purchased from Sigma-Aldrich) at a final concentration of 0, 2, 4 or 6 μM and reacting for 6 hours, so as to obtain “H2O2 group (i.e., treated with H2O2 for 2 hours, but not treated with TC),” “H2O2+TC2 group (i.e., treated with H2O2 for 2 hours and then treated with 2 μM of TC for 6 hours),” “H2O2+TC4 group (i.e., treated with H2O2 for 2 hours and then treated with 4 μM of TC for 6 hours),” and “H2O2+TC6 group (i.e., treated with H2O2 for 2 hours and then treated with 6 μM of TC for 6 hours)” ADSCs.
The total cellular RNA of the ADSCs, BMMSCs and WJSCs in each sample of the group obtained from Example 1 (1) were extracted with an RNeasy Mini kit (purchased from Qiagen), and then reverse transcribed into cDNA by a reverse transcription kit (RT Pre Mix, purchased from iNtRON Biotechnology).
Each of the cDNA of the ADSCs of “untreated group,” “H2O2 group” and “H2O2+TC6 group” from Experiment (3-1) was handled as follows. […] The mixture was then placed in a revers transcription polymerase chain reaction (RT-PCR) machine. The RT-PCR reaction conditions were set as follows: i) 94° C. for 30 seconds, 55° C. for 30 seconds, and […] for 60 seconds, repeated for 30 cycles; ii) 72° C. for 10 minutes; and iii) cooling to 4° C. to stop the reaction. The RT-PCR product was analyzed by 2% agarose gel electrophoresis at a voltage of 100 volts for 30 minutes. Then, the gel was stained with ethidium bromide (EtBr) for 10 minutes, and photographed by a gel image documentation system (DOC PRINT DP-001FDC, VilberLourmat France).

A further test relates to SIRT1 gene. The experiment in a line: Quantitative RT-PCR of SIRT1 gene in ADSCs. The protocol: as §1
Five portions of equal volume of the above culture medium containing the sub-cultured ADSCs were separately handled by adding thereinto with H2O2 at a final concentration of 100 μM and reacting for 2 hours to induce senescence of the ADSCs. Then, the culture medium in each of the five portions was replaced with a fresh culture medium. The first portion was handed by adding thereinto TC at a final concentration of 6 μM and reacting for 6 hours to obtain “TC6H group” ADSCs. The second to fifth portions were handled by adding thereinto TC at a final concentration of 6 μM, reacting for 6 hours, and then transferring and incubating the ADSCs in DMEM for 12, 24, 48 and 72 hours respectively to obtain “TC12H group,” “TC24H group,” “TC48H group” and “TC72H group” ADSCs. […]
Each of the cDNA of ADSCs of different groups from Experiment (3-1) was handled as follows. […] The mixture was then placed in a real-time quantitative PCR machine (ABI prism 7700 sequence detection system) to perform a reaction for quantifying the gene expression levels. […]

Setting [3] is: H2O2 group ADSCs compared to untreated group.
Where [4] appears, read: H2O2+TC6 group ADSCs compared to H2O2 group.

Consider `OO` [H2O2, reference compound], for which, in the test with ADSCs [1], the “cell number after osteogenic differentiation (OD450)” value is on record as “significantly reduced”. Further, in the test on ADSCs [2] (setting [3]), the “expression level of the SIRT1 gene (semiquantitative RT-PCR)” value was “significantly decreased”, the “expression level of the p21 gene (semiquantitative RT-PCR)” value is reported as “significantly increased” and the “expression level of the p53 gene (semiquantitative RT-PCR)” value is given as “significantly increased”.
`O=C/C=C/c1ccccc1` [TC, trans-cinnamaldehyde]: in the test with ADSCs [2] (setting [4]), the “expression level of the NANOG gene (semiquantitative RT-PCR)” value was “did not show significant difference”, the “expression level of the OCT4 gene (semiquantitative RT-PCR)” value is on record as “did not show significant difference”, the “expression level of the SIRT1 gene (semiquantitative RT-PCR)” value was “significantly increased” and the “expression level of the p21 gene (semiquantitative RT-PCR)” value was “significantly decreased”. For the same molecule, the “expression level of the p53 gene (semiquantitative RT-PCR)” value in the test on ADSCs [2] (setting [4]) is given as “significantly decreased”. Moreover, the “expression levels of SIRT1 gene (quantitative RT-PCR)” value in the test with SIRT1 gene (ADSCs treated only with 2, 4 and 6 μM TC 6 h (FIG. 5A)) was “significantly increased along with the increment in the concentration of TC”. In addition, the “time for which the effect of TC on increasing SIRT1 gene expression is maintained” value in the test with SIRT1 gene (H2O2-senescent ADSCs, 6 μM TC 6 h, then incubated in DMEM 12-72 h, no significant difference to TC6H group) is listed as “at least 72 hours”. Moreover, in the test with SIRT1 gene (H2O2-senescent ADSCs, 2, 4 and 6 μM TC 6 h, compared to H2O2 group (FIG. 5B)), the “expression levels of SIRT1 gene (quantitative RT-PCR)” value was “significantly increased along with the increment in the concentration of TC”.

The values are drawn from patent US11020358B2, “Method for the anti-senescence of and/or rejuvenating stem cells” (GWO XI STEM CELL APPLIED TECHNOLOGY CO., LTD., priority 2014, dated 2021).
